The target of one assay is T1, TXA2 synthetase (Equus caballus, UniProt A0A9L0T8T9).
T1 construct: arachidonic acid substrate, thromboxane B2 measured by radio-TLC
T1 sequence (A0A9L0T8T9 2-534): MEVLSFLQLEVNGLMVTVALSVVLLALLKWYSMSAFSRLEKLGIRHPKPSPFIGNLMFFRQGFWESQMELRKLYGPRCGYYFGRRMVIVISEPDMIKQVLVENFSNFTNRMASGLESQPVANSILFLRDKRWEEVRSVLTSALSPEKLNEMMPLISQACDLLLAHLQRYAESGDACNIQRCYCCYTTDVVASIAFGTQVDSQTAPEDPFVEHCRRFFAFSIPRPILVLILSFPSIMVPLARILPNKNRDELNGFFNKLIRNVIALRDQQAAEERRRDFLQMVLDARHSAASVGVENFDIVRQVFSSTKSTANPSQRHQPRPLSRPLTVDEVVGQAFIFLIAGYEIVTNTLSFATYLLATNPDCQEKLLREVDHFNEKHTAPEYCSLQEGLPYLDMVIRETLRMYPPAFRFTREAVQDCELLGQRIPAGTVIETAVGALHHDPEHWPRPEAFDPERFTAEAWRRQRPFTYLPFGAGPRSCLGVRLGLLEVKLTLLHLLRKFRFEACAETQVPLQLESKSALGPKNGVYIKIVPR
T1 sequence (F7BQR7 24-599 partner): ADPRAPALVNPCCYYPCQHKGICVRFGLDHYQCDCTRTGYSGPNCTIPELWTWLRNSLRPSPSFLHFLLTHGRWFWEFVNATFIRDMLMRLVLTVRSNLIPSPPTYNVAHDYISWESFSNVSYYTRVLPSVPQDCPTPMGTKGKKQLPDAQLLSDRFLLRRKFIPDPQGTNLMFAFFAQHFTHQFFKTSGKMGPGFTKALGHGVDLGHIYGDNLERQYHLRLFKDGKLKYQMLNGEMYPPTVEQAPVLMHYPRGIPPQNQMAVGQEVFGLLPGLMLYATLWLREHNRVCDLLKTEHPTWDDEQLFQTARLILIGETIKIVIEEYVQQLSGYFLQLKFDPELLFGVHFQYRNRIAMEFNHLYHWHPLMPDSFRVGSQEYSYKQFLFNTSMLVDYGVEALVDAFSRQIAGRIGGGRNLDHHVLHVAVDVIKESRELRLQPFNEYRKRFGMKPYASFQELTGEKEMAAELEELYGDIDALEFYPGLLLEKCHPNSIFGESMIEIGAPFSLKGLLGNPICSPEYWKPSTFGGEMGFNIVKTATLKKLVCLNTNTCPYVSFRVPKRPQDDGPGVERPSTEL
Put plainly: thromboxane production from labelled arachidonic acid by homogenised horse platelets (concentration to reduce the enzyme activity by 50%). Particulars: horse platelet homogenate, pH 7.4, 5 min preincubation, 3 min at 37° C. with arachidonic acid, read-out: ED50 (the source's name) (converted). In kind it is biochemical. As to the method: (§1) Horse platelets were prepared from whole horse blood by differential centrifugation. Approximately 10^6 platelets were homogenised in 1 ml 100 mM Tris buffer pH 7.4. Various concentrations of active compound were added and the reaction sets incubated for 5 minutes at ambient temperature. To each tube was added 20 nM of arachidonic acid containing 10^6 DPM of labelled arachidonic acid and the tubes incubated for 3 minutes at 37° C. in a shaking water bath. After incubation the radioactive products were extracted from the acidified aqueous phase with ethyl acetate and after concentration resolved by thin layer chromotography on silica gel with chloroform/methanol/acetic acid/water (90:8:1:0.8) as a developing solvent. The amount of thromboxane produced was measured by scraping the radioactive zone corresponding to thromboxane B2 and estimating the radioactivity in a liquid scintillation counter.
The concentration of active compound to reduce the enzyme activity by 50% (ED50) was established.

The test system of assay [1] is PGE, PGF and PGD (anti-aggregatory-prostaglandin generating enzymes). Put plainly: selectivity: amount of PGE, PGF and PGD produced by homogenised horse platelets. Details: key: O indicates no selectivity; + low selectivity; ++ medium selectivity. Particulars: the greater the selectivity, the more anti-aggregating prostaglandins are produced. Format: biochemical. As to the method:
as §1
The selectivity of the active compounds was measured in a similar manner to that described above and the amount of PGE, PGF and PGD produced was determined. The greater the selectivity, the more of the anti-aggregating prostaglandins are produced.
The ED50 and Selectivity results are shown in Table A in which O indicates no selectivity; + low selectivity and ++ medium selectivity.

The next assay deals with platelet aggregation. Put plainly: inhibition of platelet aggregation in vivo.
For another assay, the system named is platelet clumps. The assay is described as follows: disaggregation of platelet clumps.
Assay [2] has as its system enzymic conversion of the endoperoxides (PGG2 and PGH2) to thromboxane A2. Particulars: platelet microsomes; Moncada et al., Prostaglandins, 13/4, 611-618, 1977; cited from earlier work.
Another assay deals with serum cholesterol. Particulars: U.K. Pat. No. 1 364 312; Biochem. Pharmacol. 24, 1902-1903, 1975; cited from earlier work.

Each structure is given as a SMILES string.

As for `Cc1cc(C)c(Cn2ccnc2)c(C)c1` [1-(2,4,6-Trimethylbenzyl)imidazole, 1-(2,4,6-trimethylbenzyl)imidazole], the IC50 at TXA2 synthetase is 17 µM. Moreover, the Selectivity result in assay [1] is “++”. Regarding `Cc1ccc(Cn2ccnc2)cc1C` [1-(3,4-Dimethylbenzyl)imidazole, 1-(3,4-dimethylbenzyl)imidazole], in the assay on platelet aggregation, the “inhibiting platelet aggregation in vivo” value is reported as “capable of inhibiting platelet aggregation in vivo”. Moreover, the IC50 at TXA2 synthetase was 32.2 µM. For the same molecule, the Selectivity result in assay [1] is listed as “++”. For the same molecule, the disaggregating platelet clumps entry in the assay on platelet clumps is on record as “capable of disaggregating platelet clumps”. For `Clc1ccc(C=CCn2ccnc2)c(Cl)c1` [1-[3-(2,4-dichlorophenyl)prop-2-enyl]imidazole], at TXA2 synthetase, the IC50 was 16.2 µM. Further, the Selectivity result in assay [1] is reported as “+”.

`Clc1cccc(Cl)c1C=CCn1ccnc1` [1-[3-(2,6-dichlorophenyl)prop-2-enyl]imidazole]: the IC50 on TXA2 synthetase is 3.95 µM. In assay [1], the Selectivity result is recorded as “+”. `Cn1ccnc1` [1-methylimidazole]: the “inhibition of the enzymic conversion of PGG2 and PGH2 to thromboxane A2” value in assay [2] was “some degree of inhibition”. In the case of `CCCCCCCCCCCCn1ccnc1` [1-n-dodecylimidazole], the “lowering serum cholesterol levels” value in the assay on serum cholesterol is reported as “capable of lowering serum cholesterol levels”.

`c1c[nH]cn1` [Imidazole]: the “inhibition of the enzymic conversion of PGG2 and PGH2 to thromboxane A2” value in assay [2] is on record as “some degree of inhibition”.

Source of the values: patent US4405634A, “Imidazole derivatives for treating myocardial infarction” (Burroughs Wellcome Co., priority 1977, dated 1983).
